Data published in patent publication US20250134895A1, “METHODS AND COMPOSITIONS FOR TREATING ALPHA-SYNUCLEIN-MEDIATED NEURODEGENERATION” (UNIVERSITY HEALTH NETWORK, priority 2021, published 2025).

How the values were obtained:
[1] = test system: transgenic A30P α-synuclein C. elegans; assay: Coiler score and locomotion of C. elegans expressing A30P α-synuclein in dopaminergic neurons; assay type: in vivo, Caenorhabditis elegans
Method: Using high-resolution, multi-worm tracking with custom image processing, methods were developed for semi-automated and blinded scoring of circularity for a population of simultaneously recorded animals (n=10 per recording). A coiler score was determined for the population tested by first calculating the circularity value for each animal in each frame of video and then calculating the proportion of circularity values >0.6. […] The coiler phenotype is an abnormal motor behaviour previously reported for several unc C. elegans strains with mutations affecting neuronal function.
Animals were synchronized by isolating eggs using alkaline hypochlorite treatment and hatching overnight. Larvae were plated onto NGM agar plates with OP50 and grown for 4 days before recording locomotion. For individual C. elegans recordings, a single adult animal was randomly picked, washed for 1 to 2 minutes in M9 buffer, and then transferred to a fresh NGM plate without food for imaging. Video images were acquired (2 frames per second) for up to 6 minutes using a sCMOS camera (pco.edge, PCO) mounted on a stereomicroscope (Olympus MVX10 MacroView) controlled using the μManager software.^55 A total of 40 individual animals were imaged for each strain. For C. elegans population recordings, ten adult animals were randomly removed using an eyelash pick, washed for 1 minute in M9 buffer, and then transferred to a fresh NGM plate without food, with a ring of copper sulfate solution (150 mM) around the area of recording (a chemorepellent to keep the animals in the recording frame). Exploratory locomotion was recorded using a CCD camera (GX1920, Allied Vision) which was attached to a dissecting stereomicroscope (Leica M165C, 1.0× PlanApo lens). A Labview program captured video (2 frames per second) at 1936×1456 resolution. Using ImageJ, the displacement, perimeter, and area of each animal was calculated, from which a circularity value was computed using the following formula: circularity=4π(A/P^2), where A is the area of the animal's body and P is the perimeter of the animal's body (both expressed in arbitrary pixel units). […] Using MATLAB (Mathworks), various behavioural metrics including the coiler score were calculated, which is the percentage of frames with a circularity value >0.6. Speed was automatically computed from the ImageJ based WrmTrk plugin as the distance travelled by each animal (in pixels) over the amount of time that it was tracked (in seconds).56 Average speed was determined by calculating the weighted average of each tracked animal's speed within a single population of animals. On the day of the recording for dopamine or raclopride treatment, adult animals were washed for 1 minute in M9 buffer, treated in a solution containing either drug for 1 minute, and then placed onto fresh NGM plates without food, with a copper sulfate solution ring around the area of recording. […] Drug plates were prepared by adding each drug to LB medium with OP50 before spreading onto fresh NGM plates. The solvent used to dissolve each drug was used as vehicle control for the drug treatment experiments (M9 buffer for dopamine, distilled water for raclopride, DMSO for all other drugs).
After 72 hours of drug treatment, animals were randomly picked, washed, and recorded. A total of ten worms were recorded per population, and twelve populations were recorded for each of the four treatment groups. Locomotion was recorded for each population over a total of 1800 frames over three minutes. The animal's movement speed, area, and perimeter were automatically analyzed as previously described. Coiler score was calculated automatically using a ratio of the animal's area to perimeter, where a higher coiler score would represent a greater degree of α-synuclein-induced dopaminergic neuron dysfunction in vivo.

α-synuclein oligomers [2] = biological target: T1, α-synuclein oligomers (Homo sapiens, UniProt P37840); assay: Gaussia luciferase protein-fragment complementation cell assay of α-synuclein oligomers in H4 neuroglioma cells; assay type: cell-based; design: full-length human α-synuclein fused to the N-terminal fragment of Gaussia princeps luciferase (syn-luc1); full-length human α-synuclein fused to the C-terminal fragment of Gaussia princeps luciferase (syn-luc2); expressed in transfected cells; host or cells: H4 neuroglioma cells (ATCC, HTB-148), transient co-transfection; conditions: 1 μM or 10 μM, Example 9
Method: (§1) For controls in this assay, vehicle (i.e., DMSO), rapamycin, and bafilomycin A were used. Rapamycin, or sirolimus, is a small molecule that activates autophagy by inhibiting mTOR (mammalian target of rapamycin). […] To test this possibility, cells expressing α-synuclein were treated with each of the compounds and a cell permeable, resazurin-based assay was used to test for cell viability.
(§2) H4 neuroglioma cells (ATCC, HTB-148) were maintained in Dulbecco's Modified Eagle Medium plus high glucose, L-glutamine, and sodium pyruvate (ThermoFisher, 11995-065) with 10% heat-inactivated fetal bovine serum (ThermoFisher, 16140071) and 1% antibiotic-antimycotic cocktail (ThermoFisher, 15240062) at 37° C. and 5% CO2. DNA expression constructs encoding for full-length human α-synuclein fused to the N-terminal fragment of Gaussia princeps luciferase (syn-luc1), full-length human α-synuclein fused to the C-terminal fragment of Gaussia princeps luciferase (syn-luc2), and full-length Gaussia princeps luciferase were kindly provided by Dr. Pamela McLean, Mayo Clinic Jacksonville.^33 Cells were transiently co-transfected with syn-luc1 and syn-luc2 or transfected with luciferase alone using Superfect transfection reagent (Qiagen, 301305) according to the manufacturer's instructions. Twenty-four hours after transfection, cells were plated on a 96-well microplate at 60,000 cells per well. Twenty-four hours after plating, cells were treated with drugs or vehicle control. Following 24 hours of treatment, cells were washed 1 time with PBS and bioluminescence was measured using an automated CLARIOstar plate reader (Mandel, 430-0505). Cell permeable, native coelenterazine was used as the Gaussia luciferase substrate. Lyophilized coelenterazine (Nanolight, 303-500) was reconstituted in NanoFuel Solvent (Nanolight, 399-1), then diluted in PBS to 16.6 μg/mL, and dispensed per well to a final concentration of 20 μM). The bioluminescent signal generated by the luciferase enzyme was assessed at 470 nm over 5 seconds. Raw luminescence units were normalized to the DMSO vehicle control of each 96-well microplate. To assess cell viability, H4 neuroglioma cells were prepared and treated as described above and, 1 hour prior to viability analysis, cells were treated with PrestoBlue viability reagent (ThermoFisher, A13261) according to the manufacturer's instructions. Fluorescence was automatically measured using a CLARIOstar plate reader (Mandel, 430-0505) and then normalized to the fluorescence measure of the DMSO vehicle control.
We used a bioluminescent protein-fragment complementation assay in which human H4 neuroglioma cells co-express human α-synuclein tagged with the N- or C-terminal half of Gaussia princeps luciferase (FIG. 12). Reconstitution of a complete and active luciferase molecule from the fragments occurs upon α-synuclein oligomerization, and so luminescence provides an indirect measure of α-synuclein oligomer levels. H4 neuroglioma cells were co-transfected with α-syn luciferase fragments, and constructs were plated into a 96-well plate and treated with either 1 μM or 10 μM of each of the 19 drug compounds.

α-synuclein oligomers [3] = biological target: T1, α-synuclein oligomers; assay: Venus YFP protein-fragment complementation assay in rat primary cortical neurons; assay type: cell-based; conditions: 10 μM, 72 hours
Method: Specifically, adeno-associated viral vectors (AAV) were used to co-express human α-synuclein tagged with the N- or C-terminal half of Venus yellow fluorescent protein (YFP) in rat cortical neurons.
Pregnant Sprague Dawley rats (E17) were purchased from Charles River. Embryos were surgically removed, and neurons were harvested in a sterile environment. Neurons were plated on poly-D-lysine coated glass coverslips at a density of 5×10^5 cells per well in Neurobasal-A medium, (Gibco, 10888022) supplemented with B27 (2%) (Gibco, 17504044), antibiotic-antimycotic (1%) (Gibco, 15240062), and Glutamax (1%) (Gibco, 35050061). Fifty percent media changes were performed every 3 days. […] Two days post isolation, neurons were co-transduced with AAV-V1 S and AAV-SV2 or transduced with AAV-Venus alone at a MOI of 3,000. […] Concentrations were selected to avoid neuron toxicity according to previous reports.^57-61 Drug-containing media was removed, and cells were washed 1 time with ice-cold PBS before being fixed with 4% PFA (Sigma) at room temperature for 10 minutes. Levels of α-synuclein oligomers were measured by YFP fluorescence. […] YFP fluorescence intensity was analysed automatically using Imaris imaging software (Oxford Instruments). […]

[4] = test system: full-length Gaussia princeps luciferase; assay: Activity of full-length Gaussia luciferase alone in H4 cells; assay type: cell-based; conditions: 10 μM, FIG. 14
Method: as §1, §2

α-syn oligomers as measured by luciferase activity (α-synuclein oligomers [2]): significant decrease | YFP fluorescence compared with vehicle control (α-synuclein oligomers [3]): significantly reduced
SMILES: Nc1nc(NC2CC2)c2ncn([C@H]3C=C[C@@H](CO)C3)c2n1 [Abacavir, abacavir]
locomotor speed ([1]; 100 μM of drug): No significant differences | effect on coiling / coiler score ([1]; 100 μM, 72 hr, vs DMSO vehicle): significantly reduced | changes in the activity of full-length Gaussia luciferase alone [4]: No statistically significant changes
